The Ki is the equilibrium dissociation constant of an inhibitor or competing ligand from its target. Higher therefore signals weaker binding.

Molecules are shown by their SMILES.

This assay has as its target T1, AxlA (Aspergillus niger, UniProt A2QTU5).
T1 sequence (A2QTU5 19-736): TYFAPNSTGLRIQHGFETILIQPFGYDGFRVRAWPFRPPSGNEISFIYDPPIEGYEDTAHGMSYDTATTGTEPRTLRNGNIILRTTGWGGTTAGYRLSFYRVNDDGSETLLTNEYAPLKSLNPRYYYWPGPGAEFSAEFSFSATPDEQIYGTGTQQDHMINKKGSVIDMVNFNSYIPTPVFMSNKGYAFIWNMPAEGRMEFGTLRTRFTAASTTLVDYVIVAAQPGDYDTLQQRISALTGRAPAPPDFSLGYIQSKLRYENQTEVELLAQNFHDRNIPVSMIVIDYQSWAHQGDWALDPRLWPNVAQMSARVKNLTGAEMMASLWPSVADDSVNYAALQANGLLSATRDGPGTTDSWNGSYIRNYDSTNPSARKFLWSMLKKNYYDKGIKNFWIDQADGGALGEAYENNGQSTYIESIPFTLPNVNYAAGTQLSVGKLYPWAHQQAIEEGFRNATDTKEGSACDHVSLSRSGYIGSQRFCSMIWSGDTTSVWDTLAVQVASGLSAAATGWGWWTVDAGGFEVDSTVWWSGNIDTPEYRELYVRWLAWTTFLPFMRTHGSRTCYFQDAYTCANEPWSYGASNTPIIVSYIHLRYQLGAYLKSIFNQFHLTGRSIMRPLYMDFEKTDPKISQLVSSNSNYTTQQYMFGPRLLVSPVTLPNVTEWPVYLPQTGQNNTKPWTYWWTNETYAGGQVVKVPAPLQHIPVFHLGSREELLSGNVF
Briefly: pNPαX hydrolysis competition, nonlinear curve fitting. Type of assay: biochemical. The note with it: substrate p-nitrophenyl-α-xyloside 0-20 mM; reaction product.

`OC1OC[C@@H](O)[C@H](O)[C@H]1O` (stereo partly shown) [Xyl] registered a Ki of 13.7 mM.

These data come from PMC3652757, “Enhancement of fermentable sugar yields by α-xylosidase supplementation of commercial cellulases” (Biotechnology for Biofuels, 2013).
